According to PubChem BioAssay (NCI):
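Protocol summary: plate cells (96-well), add compound at 5 concentrations, incubate 48 h, interpolate endpoints linearly. TGI denotes the concentration required for complete inhibition of growth.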

Legend:
Assay in all cases: growth of human tumour cells (NCI), 48 h
[1] = system: 786-0 renal
[2] = system: A549 NSCLC
[3] = system: ACHN renal
[4] = system: BT-549 breast
[5] = system: CAKI-1 renal
[6] = system: CCRF-CEM leukemia
[7] = system: COLO 205 colon
[8] = system: DU-145 prostate
[9] = system: EKVX NSCLC
[10] = system: HCC-2998 colon
[11] = system: HCT-116 colon
[12] = system: HCT-15 colon
[13] = system: HL-60(TB) leukemia
[14] = system: HOP-62 NSCLC
[15] = system: HOP-92 NSCLC
[16] = system: HS 578T breast
[17] = system: HT29 colon
[18] = system: IGROV1 ovarian
[19] = system: K-562 leukemia
[20] = system: KM12 colon
[21] = system: LOX IMVI melanoma
[22] = system: M14 melanoma
[23] = system: MALME-3M melanoma
[24] = system: MCF7 breast
[25] = system: MDA-MB-231 breast
[26] = system: MDA-MB-435
[27] = system: MDA-N
[28] = system: MOLT-4 leukemia
[29] = system: NCI-H226 lung
[30] = system: NCI-H23 lung
[31] = system: NCI-H522 lung
[32] = system: NCI/ADR-RES ovarian
[33] = system: OVCAR-3 ovarian
[34] = system: OVCAR-4 ovarian
[35] = system: OVCAR-5 ovarian
[36] = system: OVCAR-8 ovarian
[37] = system: PC-3 prostate
[38] = system: RPMI-8226 leukemia
[39] = system: RXF 393 renal
[40] = system: SF-268 CNS
[41] = system: SF-295 CNS
[42] = system: SF-539 CNS
[43] = system: SK-MEL-2 melanoma
[44] = system: SK-MEL-28 melanoma
[45] = system: SK-MEL-5 melanoma
[46] = system: SK-OV-3 ovarian
[47] = system: SN12C renal
[48] = system: SNB-19 CNS
[49] = system: SNB-75 CNS
[50] = system: SR leukemia
[51] = system: SW-620 colon
[52] = system: T-47D breast
[53] = system: TK-10 renal
[54] = system: U251 CNS
[55] = system: UACC-257 melanoma
[56] = system: UACC-62 melanoma
[57] = system: UO-31 renal
[58] = system: NCI-H460 lung
[59] = system: A498 renal

CC1C/C(=N\N(C)C)C(C#N)(C#N)C1(C#N)C#N (stereo not drawn)
TGI [1]: 14.6 µM | TGI [2]: 69.5 µM | TGI [3]: 23.1 µM | TGI [4]: 22.1 µM | TGI [5]: 3.38 µM | TGI [6]: > 100 µM | TGI [7]: 5.67 µM | TGI [8]: 34 µM | TGI [9]: 56.1 µM | TGI [10]: 31.5 µM | TGI [11]: 38.4 µM | TGI [12]: 21.1 µM | TGI [13]: > 100 µM | TGI [14]: 39.4 µM | TGI [15]: 11.6 µM | TGI [16]: > 88.3 µM | TGI [17]: 18.7 µM | TGI [18]: 38.8 µM | TGI [19]: > 100 µM | TGI [20]: > 31.6 µM | TGI [21]: 19.7 µM | TGI [22]: 31.7 µM | TGI [23]: 13.7 µM | TGI [24]: 83.8 µM | TGI [25]: 1.32 µM | TGI [26]: 37.4 µM | TGI [27]: 33 µM | TGI [28]: 6.9 µM | TGI [29]: > 65.9 µM | TGI [30]: 43.1 µM | TGI [31]: 4.13 µM | TGI [32]: 75.8 µM | TGI [33]: 33.9 µM | TGI [34]: 25.6 µM | TGI [35]: 48.5 µM | TGI [36]: 45 µM | TGI [37]: 47.2 µM | TGI [38]: 25.5 µM | TGI [39]: 23.9 µM | TGI [40]: 24.8 µM | TGI [41]: 43.2 µM | TGI [42]: 34.8 µM | TGI [43]: 48.8 µM | TGI [44]: > 78.6 µM | TGI [45]: 44.2 µM | TGI [46]: > 67.3 µM | TGI [47]: 34.4 µM | TGI [48]: > 70.6 µM | TGI [49]: 27 µM | TGI [50]: 17.2 µM | TGI [51]: > 100 µM | TGI [52]: 37.7 µM | TGI [53]: 27.6 µM | TGI [54]: 40.1 µM | TGI [55]: 28 µM | TGI [56]: 39.5 µM | TGI [57]: 30.3 µM

COc1ccccc1S(=O)Nc1ccccc1 (stereo not drawn)
TGI [1]: > 100 µM | TGI [2]: > 100 µM | TGI [3]: > 100 µM | TGI [4]: > 100 µM | TGI [6]: > 100 µM | TGI [7]: > 100 µM | TGI [8]: > 100 µM | TGI [9]: > 100 µM | TGI [10]: > 100 µM | TGI [11]: > 100 µM | TGI [12]: > 100 µM | TGI [13]: > 100 µM | TGI [14]: > 100 µM | TGI [16]: > 100 µM | TGI [17]: > 100 µM | TGI [18]: > 100 µM | TGI [19]: > 100 µM | TGI [20]: 85.1 µM | TGI [21]: > 100 µM | TGI [23]: > 100 µM | TGI [24]: > 100 µM | TGI [25]: > 100 µM | TGI [26]: > 100 µM | TGI [27]: > 100 µM | TGI [28]: > 100 µM | TGI [29]: > 100 µM | TGI [30]: > 100 µM | TGI [58]: > 100 µM | TGI [31]: > 100 µM | TGI [32]: > 100 µM | TGI [33]: > 100 µM | TGI [34]: > 100 µM | TGI [35]: > 100 µM | TGI [36]: > 100 µM | TGI [38]: > 100 µM | TGI [40]: > 100 µM | TGI [41]: > 100 µM | TGI [42]: > 100 µM | TGI [43]: > 100 µM | TGI [44]: > 100 µM | TGI [45]: > 100 µM | TGI [47]: > 100 µM | TGI [48]: > 100 µM | TGI [50]: > 100 µM | TGI [51]: > 100 µM | TGI [52]: 95.5 µM | TGI [53]: > 100 µM | TGI [54]: > 100 µM | TGI [55]: > 100 µM | TGI [56]: > 100 µM | TGI [57]: > 100 µM

COc1ccc(N[C@H](CS(=O)c2ccc(C)cc2)C(F)(F)C(F)(F)F)cc1 (stereo partly drawn)
TGI [1]: > 100 µM | TGI [59]: > 100 µM | TGI [2]: > 100 µM | TGI [3]: > 100 µM | TGI [4]: > 100 µM | TGI [5]: > 100 µM | TGI [6]: > 100 µM | TGI [7]: > 100 µM | TGI [8]: > 100 µM | TGI [9]: > 100 µM | TGI [10]: > 100 µM | TGI [11]: > 100 µM | TGI [12]: > 100 µM | TGI [13]: > 100 µM | TGI [14]: > 100 µM | TGI [15]: 64.5 µM | TGI [16]: > 100 µM | TGI [17]: > 100 µM | TGI [18]: > 100 µM | TGI [19]: > 100 µM | TGI [20]: > 100 µM | TGI [21]: > 100 µM | TGI [22]: > 100 µM | TGI [23]: > 100 µM | TGI [24]: > 100 µM | TGI [26]: > 100 µM | TGI [27]: > 100 µM | TGI [28]: > 100 µM | TGI [29]: > 100 µM | TGI [30]: > 100 µM | TGI [58]: > 100 µM | TGI [31]: > 100 µM | TGI [32]: > 100 µM | TGI [33]: > 100 µM | TGI [34]: > 100 µM | TGI [35]: > 100 µM | TGI [36]: > 100 µM | TGI [38]: > 100 µM | TGI [39]: 32.4 µM | TGI [40]: > 100 µM | TGI [41]: > 100 µM | TGI [42]: > 100 µM | TGI [44]: > 100 µM | TGI [45]: > 100 µM | TGI [46]: > 100 µM | TGI [47]: > 100 µM | TGI [48]: > 100 µM | TGI [49]: 75.6 µM | TGI [51]: > 100 µM | TGI [52]: > 100 µM | TGI [53]: > 100 µM | TGI [54]: > 100 µM | TGI [55]: > 100 µM | TGI [56]: > 100 µM | TGI [57]: > 100 µM

N#CC1CCN2N=C(c3ccccc3)SC12c1ccccc1 (stereo not drawn)
TGI [1]: > 100 µM | TGI [2]: > 100 µM | TGI [3]: > 100 µM | TGI [4]: > 100 µM | TGI [5]: > 100 µM | TGI [7]: > 100 µM | TGI [9]: 97.3 µM | TGI [10]: > 100 µM | TGI [11]: > 100 µM | TGI [12]: > 100 µM | TGI [13]: > 100 µM | TGI [14]: > 100 µM | TGI [15]: > 100 µM | TGI [16]: > 100 µM | TGI [17]: > 100 µM | TGI [18]: > 100 µM | TGI [19]: > 100 µM | TGI [20]: > 100 µM | TGI [21]: > 100 µM | TGI [22]: > 100 µM | TGI [23]: > 100 µM | TGI [24]: > 100 µM | TGI [25]: > 100 µM | TGI [26]: > 100 µM | TGI [27]: > 100 µM | TGI [28]: 83.4 µM | TGI [29]: > 100 µM | TGI [30]: > 100 µM | TGI [58]: > 100 µM | TGI [31]: > 100 µM | TGI [32]: > 100 µM | TGI [34]: > 100 µM | TGI [35]: > 100 µM | TGI [36]: > 100 µM | TGI [37]: > 100 µM | TGI [38]: > 100 µM | TGI [39]: > 100 µM | TGI [40]: > 100 µM | TGI [41]: > 100 µM | TGI [42]: > 100 µM | TGI [43]: > 100 µM | TGI [44]: > 100 µM | TGI [45]: > 100 µM | TGI [46]: > 100 µM | TGI [47]: > 100 µM | TGI [48]: > 100 µM | TGI [49]: > 100 µM | TGI [50]: > 100 µM | TGI [51]: > 100 µM | TGI [52]: > 100 µM | TGI [53]: > 100 µM | TGI [54]: > 100 µM | TGI [55]: > 100 µM | TGI [56]: 29.5 µM | TGI [57]: > 100 µM
